Results from patent US11753411B2, “Substituted pyrazolo[1,5-a]pyrimidines as TYK2 pseudokinase ligands” (Ventyx Biosciences, Inc., priority 2019, dated 2023).

tested on: IFN-a/Jak1 Tyk2; test: Co-stimulation assay in lysed whole blood: IFNa (JAK1/TYK2) stimulated STAT1 phosphorylation; format: cell-based; conditions: Homo sapiens, 20 min, 100 ng/mL IFNa (with 10 ng/mL GM-CSF), pSTAT by flow cytometry
Outline: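 Lysed human whole blood (RBC-lysed, resuspended in cRPMI) pre-incubated with compound 1 h at 37 °C, then stimulated 20 min with IFNa 100 ng/mL plus GM-CSF 10 ng/mL (final). Fixed, permeabilised, stained for pSTAT1 (PE) and pSTAT5 (AF488); flow cytometry read-out, ≥5,000–10,000 cells acquired.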

| IC50 | SMILES |
| --- | --- |
| 1000 to 10000 nM | CNC(=O)Nc1cnn2c(NC)cc(Nc3ccc4c(c3)OCCO4)nc12 [Compound 107, 1-(5-((2,3-dihydrobenzo[b][1,4]dioxin-6-yl)amino)-7-(methylamino)pyrazolo[1,5-a]pyrimidin-3-yl)-3-methylurea] |
| 1000 to 10000 nM | CNC(=O)Nc1cnn2c(NC)cc(NC(=O)c3ccccc3)nc12 [Compound 167, N-(7-(methylamino)-3-(3-methylureido)pyrazolo[1,5-a]pyrimidin-5-yl)benzamide] |
| ≥ 10000 nM | CNc1cc(Nc2c(F)c(F)cc3c2OCCO3)nc2c(NC(=O)N[C@@H]3C[C@@H]3F)cnn12 [Compound 61, 1-(5-((6,7-difluoro-2,3-dihydrobenzo[b][1,4]dioxin-5-yl)amino)-7-(methylamino)pyrazolo[1,5-a]pyrimidin-3-yl)-3-((1R,2S)-2-fluorocyclopropyl)urea] |
| < 1000 nM | C#CCNC(=O)Nc1cnn2c(NC)cc(Nc3cccc4c3OCCO4)nc12 [Compound 101, 1-(5-((2,3-dihydrobenzo[b][1,4]dioxin-5-yl)amino)-7-(methylamino)pyrazolo[1,5-a]pyrimidin-3-yl)-3-(prop-2-yn-1-yl)urea] |
| < 1000 nM | CNc1cc(Nc2cccc3c2OCCO3)nc2c(NC(=O)NC3CCC3)cnn12 [Compound 93, 1-cyclobutyl-3-(5-((2,3-dihydrobenzo[b][1,4]dioxin-5-yl)amino)-7-(methylamino)pyrazolo[1,5-a]pyrimidin-3-yl)urea] |
| < 1000 nM | C#C[C@H](C)NC(=O)Nc1cnn2c(NC)cc(Nc3cccc4c3OCCO4)nc12 [Compound 123, (S)-1-(but-3-yn-2-yl)-3-(5-((2,3-dihydrobenzo[b][1,4]dioxin-5-yl)amino)-7-(methylamino)pyrazolo[1,5-a]pyrimidin-3-yl)urea] |
| < 1000 nM | CNC(=O)Nc1cnn2c(NC)cc(-c3cn(C4CCOCC4)c4ncccc34)nc12 [Compound 80, 1-methyl-3-(7-(methylamino)-5-(1-(tetrahydro-2H-pyran-4-yl)-1H-pyrrolo[2,3-b]pyridin-3-yl)pyrazolo[1,5-a]pyrimidin-3-yl)urea] |
| < 1000 nM | CNc1cc(Nc2cccc3nccnc23)nc2c(NC(=O)NCC#N)cnn12 [Compound 132, 1-(cyanomethyl)-3-(7-(methylamino)-5-(quinoxalin-5-ylamino)pyrazolo[1,5-a]pyrimidin-3-yl)urea] |
| < 1000 nM | CNC(=O)Nc1cnn2c(NC)cc(Nc3cccc(OC)c3)nc12 [Compound 150, 1-(5-((3-methoxyphenyl)amino)-7-(methylamino)pyrazolo[1,5-a]pyrimidin-3-yl)-3-methylurea] |
| < 1000 nM | CNc1cc(Nc2cccc3occc23)nc2c(NC(=O)N[C@@H]3C[C@@H]3F)cnn12 [Compound 50, 1-(5-(benzofuran-4-ylamino)-7-(methylamino)pyrazolo[1,5-a]pyrimidin-3-yl)-3-((1R,2S)-2-fluorocyclopropyl)urea] |
| 1000 to 10000 nM | CNc1cc(Nc2cccc3c2OCCO3)nc2c(NC(=O)NC3CC(O)C3)cnn12 (stereo not drawn) [Compound 29, 1-(5-((2,3-dihydrobenzo[b][1,4]dioxin-5-yl)amino)-7-(methylamino)pyrazolo[1,5-a]pyrimidin-3-yl)-3-(3-hydroxycylcobutyl)urea] |
| < 1000 nM | CNc1cc(Nc2cc(F)cc3c2OCCO3)nc2c(NC(=O)NCCOC)cnn12 [Compound 113, 1-(5-((7-fluoro-2,3-dihydrobenzo[b][1,4]dioxin-5-yl)amino)-7-(methylamino)pyrazolo[1,5-a]pyrimidin-3-yl)-3-(2-methoxyethyl)urea] |
| < 1000 nM | CNC(=O)Nc1cnn2c(NC)cc(Nc3cccc4c3OCCO4)nc12 [Compound 7, 1-(5-((2,3-dihydrobenzo[b][1,4]dioxin-5-yl)amino)-7-(methylamino)pyrazolo[1,5-a]pyrimidin-3-yl)-3-methylurea] |
| < 1000 nM | CNc1cc(Nc2cccc3c2OCCO3)nc2c(NC(=O)N[C@@H]3C[C@@H]3F)cnn12 [Compound 26, 1-(5-((2,3-dihydrobenzo[b][1,4]dioxin-5-yl)amino)-7-(methylamino)pyrazolo[1,5-a]pyrimidin-3-yl)-3-((1R,2S)-2-fluorocyclopropyl)urea] |
| 1000 to 10000 nM | CNC(=O)Nc1cnn2c(NC)cc(-c3c[nH]c4ncccc34)nc12 [Compound 88, 1-methyl-3-(7-(methylamino)-5-(1H-pyrrolo[2,3-b]pyridin-3-yl)pyrazolo[1,5-a]pyrimidin-3-yl)urea] |
| 1000 to 10000 nM | CNc1cc(Nc2cccc3c2OCCO3)nc2c(NC(=O)NCC(F)F)cnn12 [Compound 134, 1-(2,2-difluoroethyl)-3-(5-((2,3-dihydrobenzo[b][1,4]dioxin-5-yl)amino)-7-(methylamino)pyrazolo[1,5-a]pyrimidin-3-yl)urea] |

The next lines start with the compound.

| SMILES | IC50 |
| --- | --- |
| CNC(=O)Nc1cnn2c(NC)cc(Nc3cccc4cccnc34)nc12 [Compound 64, 1-methyl-3-(7-(methylamino)-5-(quinolin-8-ylamino)pyrazolo[1,5-a]pyrimidin-3-yl)urea] | < 1000 nM |
| CNc1cc(Nc2cccc3c2OCCO3)nc2c(NC(=O)NC3COC3)cnn12 [Compound 117, 1-(5-((2,3-dihydrobenzo[b][1,4]dioxin-5-yl)amino)-7-(methylamino)pyrazolo[1,5-a]pyrimidin-3-yl)-3-(oxetan-3-yl)urea] | < 1000 nM |
| CNc1cc(Nc2cccc3cccnc23)nc2c(NC(=O)NC3CC3O)cnn12 (stereo not drawn) [Compound 31, 1-(2-hydroxycyclopropyl)-3-(7-(methylamino)-5-(quinolin-8-ylamino)pyrazolo[1,5-a]pyrimidin-3-yl)urea] | ≥ 10000 nM |
| CNC(=O)Nc1cnn2c(NC)cc(Nc3cc(Cl)cc4c3OCCO4)nc12 [Compound 77, 1-(5-((7-chloro-2,3-dihydrobenzo[b][1,4]dioxin-5-yl)amino)-7-(methylamino)pyrazolo[1,5-a]pyrimidin-3-yl)-3-methylurea] | < 1000 nM |
| CNc1cc(Nc2cc(C)ccc2OC)nc2c(NC(=O)NCC#N)cnn12 [Compound 129, 1-(cyanomethyl)-3-(5-((2-methoxy-5-methylphenyl)amino)-7-(methylamino)pyrazolo[1,5-a]pyrimidin-3-yl)urea] | < 1000 nM |
| [2H]C1([2H])Oc2cc(F)cc(Nc3cc(NC)n4ncc(NC(=O)N[C@@H]5C[C@@H]5F)c4n3)c2OC1([2H])[2H] [Compound 182, 1-(5-((7-fluoro-2,3-dihydrobenzo[b][1,4]dioxin-5-yl-2,2,3,3-d4)amino)-7-(methylamino)pyrazolo[1,5-a]pyrimidin-3-yl)-3-((1R,2S)-2-fluorocyclopropyl)urea] | < 1000 nM |
| CNc1cc(Nc2cccc3c2OCCO3)nc2c(NC(=O)NC(C)C)cnn12 [Compound 148, 1-(5-((2,3-dihydrobenzo[b][1,4]dioxin-5-yl)amino)-7-(methylamino)pyrazolo[1,5-a]pyrimidin-3-yl)-3-isopropylurea] | < 1000 nM |
| CNC(=O)Nc1cnn2c(NC)cc(Nc3ccc(F)c4c3OCCO4)nc12 [Compound 142, 1-(5-((8-fluoro-2,3-dihydrobenzo[b][1,4]dioxin-5-yl)amino)-7-(methylamino)pyrazolo[1,5-a]pyrimidin-3-yl)-3-methylurea] | < 1000 nM |
| CNc1cc(Nc2cccc3c2OCCO3)nc2c(NC(=O)NC3CC(F)(F)C3)cnn12 [Compound 34, 1-(3,3-difluorocyclobutyl)-3-(5-((2,3-dihydrobenzo[b][1,4]dioxin-5-yl)amino)-7-(methylamino)pyrazolo[1,5-a]pyrimidin-3-yl)urea] | 1000 to 10000 nM |
| CNc1c(F)c(Nc2cccc3c2OCCO3)nc2c(NC(=O)N[C@@H]3C[C@@H]3F)cnn12 [Compound 55, 1-(5-((2,3-dihydrobenzo[b][1,4]dioxin-5-yl)amino)-6-fluoro-7-(methylamino)pyrazolo[1,5-a]pyrimidin-3-yl)-3-((1R,2S)-2-fluorocyclopropyl)urea] | ≥ 10000 nM |
| CNc1cc(Nc2cccc3c2OCCO3)nc2c(NC(=O)N[C@@H](C)C#N)cnn12 [Compound 121, (S)-1-(1-cyanoethyl)-3-(5-((2,3-dihydrobenzo[b][1,4]dioxin-5-yl)amino)-7-(methylamino)pyrazolo[1,5-a]pyrimidin-3-yl)urea] | < 1000 nM |
| CNC(=O)Nc1cnn2c(NC)cc(NC3CCCC3)nc12 [Compound 155, 1-(5-(cyclopentylamino)-7-(methylamino)pyrazolo[1,5-a]pyrimidin-3-yl)-3-methylurea] | 1000 to 10000 nM |
| CNC(=O)Nc1cnn2c(NC)cc(Nc3cccc4c3OCCCO4)nc12 [Compound 169, 1-(5-((3,4-dihydro-2H-benzo[b][1,4]dioxepin-6-yl)amino)-7-(methylamino)pyrazolo[1,5-a]pyrimidin-3-yl)-3-methylurea] | < 1000 nM |
| CNc1cc(Nc2c(F)c(F)cc(F)c2F)nc2c(NC(=O)N[C@@H]3C[C@@H]3F)cnn12 [Compound 38, 1-((1R,2S)-2-fluorocyclopropyl)-3-(7-(methylamino)-5-((2,3,5,6-tetrafluorophenyl)amino)pyrazolo [1,5-a]pyrimidin-3-yl)urea] | 1000 to 10000 nM |
| CNc1cc(Nc2cccc3c2OCCO3)nc2c(NC(=O)N[C@H]3CC[C@H]3O)cnn12 [Compound 59, 1-(5-((2,3-dihydrobenzo[b][1,4]dioxin-5-yl)amino)-7-(methylamino)pyrazolo[1,5-a]pyrimidin-3-yl)-3-((1S,2R)-2-hydroxycyclobutyl)urea] | 1000 to 10000 nM |
| CNc1cc(Nc2cccc3c2OCCO3)nc2c(NC(=O)N(C)C)cnn12 [Compound 140, 3-(5-((2,3-dihydrobenzo[b][1,4]dioxin-5-yl)amino)-7-(methylamino)pyrazolo[1,5-a]pyrimidin-3-yl)-1,1-dimethylurea] | ≥ 10000 nM |
| CNC(=O)Nc1cnn2c(NC)cc(Nc3ccccc3-c3ncco3)nc12 [Compound 71, 1-methyl-3-(7-(methylamino)-5-((2-(oxazol-2-yl)phenyl)amino)pyrazolo[1,5-a]pyrimidin-3-yl)urea] | < 1000 nM |
